Measured values from patent EP2197879B1, “C7-SUBSTITUTED CAMPTOTHECIN ANALOGS” (priority 2007, dated 2009).
Like-named read-outs stand apart in the source and are kept apart here.

What was measured:
[1] = tested on: A2780/WT (wild-type) cells; assay: Sulforhodamine B (SRB) cytotoxicity assay in A2780/WT cells; assay type: cell-based
Description: (§1) Each of the testing conditions used in this study in both A2780/WT (wild-type) and A2780/DX5 cells were repeated in five to fifteen experiments that were performed on separate days. Each experiment consisted of one microtiter plate with at least eight individual assays of a given drug treatment condition on the plate. The sulforhodamine B (SRB) assay was used to assess cytotoxicity and absorbance at 570 nm (A570) in order to calculate the percentage of cell control (or percent cell survival) for the various treatment conditions in the plate wells.
(§2) Roswell Park Memorial Institute (RPMI 1640) medium, fetal bovine serum (FBS), and L-glutamine were purchased from Gibco BRL. Drugs were dissolved in sterile dimethylsulfoxide (DMSO), from American Type Culture Collection (ATCC) for stock solutions (2.5 to 5.0 mM). Subsequent dilutions were made using cell culture medium (prior to adding the drug to cells). SRB was purchased from Sigma and dissolved in 1.0 percent acetic acid. Trichloroacetic acid was purchased from VWR International.
(§3) Cells were manipulated in a Class IIA/B3 Biological Safety Cabinet (Forma Scientific) and maintained at 37°C in a humidified atmosphere containing 5% CO2 in a water-jacketed cell culture incubator (Forma Scientific). Cells were counted using a Coulter-Z1 counter (Beckman-Coulter). Following drug treatment, plates were washed using a Biomek 2000 station (Beckman) and, following exposure to SRB dye, plates were washed using an automated plate washer (Model EL404, Bio-Tek Instruments). Percentage of control was correlated to A570 values and determined using a Model EL800 plate reader (Bio-Tek Instruments).
(§4) Population doubling times for the two cell lines used in this study encompassed a total of five cell doublings corresponding to approximately 5 days for A2780/WT and A2780/DX5 cells. A2780/WT and A2780/DX5 cells were cultured in RPMI 1640 medium supplemented with 10% fetal bovine serum and 1 mM of L-glutamine. Both cell lines were maintained as monolayered cultures in T-25 or T-75 flasks and then seeded to microtiter plate wells for experiments described herein. Prior to SRB assays, cell viability was monitored by evaluation of microtiter plate wells. Dead cells detach and float while living cells remain attached to the bottom of the cell well.
(§5) The sulforhodamine B (SRB) cytotoxicity assay (see, Skehan P, et al., New colorimetric cytotoxicity assay for anticancer-drug screening. J. Natl. Cancer Inst. 82:1107-1112 (1990)) was used to determine the cytotoxic effects of BNP1350, SN-38, topotecan, 9-NH2-CPT, and 9-NO2-CPT on cell growth in vitro. Briefly, after the medium was aspirated from individual plate wells, trichloroacetic acid (100 µL of 10.0% solution) was added to each well, and the plates were incubated at 4°C for at least 1 hour. The plates were washed five-times with water using an automated microplate washer (Model EL 404, Bio-Tek Instruments), SRB solution (100 µL of 0.4 grams SRB dissolved in 100 mL 1.0 percent acetic acid) was added, and plates remained at room temperature for 15 minutes. The plates were then washed five-times using acetic acid (1.0%), air dried, and bound dye was solubilized in Tris base (150 µL, 10 mM). Plates were agitated (gently) for 5 minutes and the absorbance values of the SRB dye-protein adduct at a 570 nm wavelength (A570) were determined using an automated microtiter plate reader equipped with an A570 filter (Model EL800, BioTek Instruments). Table VII. Summary of Cytotoxicity Experiments in A2780/WT and DX5 Cells

A2780/DX5 cells = assay: Sulforhodamine B (SRB) cytotoxicity assay in A2780/DX5 cells; assay type: cell-based; conditions: for IC50 Ratio: A2780/DX5 versus A2780/WT
Description: as §1, §2, §3, §4, §5

human plasma proteins = conditions: 100 nM Compound Concentrations; 48 hours or longer at room temperature
[2] = Homo sapiens, A2780, read-out: A2780/ WT (IC50)
[3] = Homo sapiens, SRB assay, A2780/DX5 cells, read-out: A2780/ DX5 (IC50)
[4] = Homo sapiens, SRB assay, A2780/WT cells, read-out: A2780/ WT (IC50)
[5] = Homo sapiens, A2780, read-out: A2780/ DX5 (IC50)
[6] = SRB assay, A2780/WT cells, read-out: A2780/ WT (IC50)
[7] = SRB assay, A2780/DX5 cells, read-out: A2780/ DX5 (IC50)

| Structure (SMILES) | IC50 [1, 2] [nM] | IC50 Ratio (A2780/DX5 cells) | IC50 (A2780/DX5 cells; [3]) [nM] | IC50 [1, 4] [nM] | IC50 (A2780/DX5 cells; [5]) [nM] | IC50 [1, 6] [nM] | IC50 (A2780/DX5 cells; [7]) [nM] | Percent of Free Camptothecin Analogs in Human Plasma (human plasma proteins) [%] |
| --- | --- | --- | --- | --- | --- | --- | --- | --- |
| CC[C@@]1(O)C(=O)OCc2c1cc1n(c2=O)Cc2c-1nc1ccccc1c2CC[Si](C)(C)CSC1=NCCS1 [Compound 34, (4S)-11-{2-[(4,5-dihydro-thiazol-2-ylsulfanylmethyl)-dimethylsilanyl]-ethyl}-4-ethyl-4-hydroxy-1,12-dihydro-4H-2-oxa-6,12a-diaza-dibenzo[b,h]fluorene-3,13-dione] | 20.3 | 2.7 | 55.5 |  |  |  |  |  |
| CC[C@@]1(O)C(=O)OCc2c1cc1n(c2=O)Cc2c-1nc1ccccc1c2CC[Si](C)(C)CSCCO [Compound 35, (4S)-4-ethyl-4-hydroxy-11-{2-[(2-hydroxy-ethylsulfanylmethyl)-dimethyl-silanyl]-ethyl}-1,12-dihydro-4H-2-oxa-6,12a-diaza-dibenzo[b,h]fluorene-3,13-dione] |  | 2.6 | 21.6 | 8.2 |  |  |  |  |
| CC[C@@]1(O)C(=O)OCc2c1cc1n(c2=O)Cc2c-1nc1ccccc1c2CC[Si](C)(C)CNS(=O)(=O)c1ccc(Cl)cc1 [Compound 37, (4S)-4-chloro-N-({[2-(4-ethyl-4-hydroxy-3,13-dioxo-3,4,12,13-tetrahydro-1H-2-oxa-6,12a-diaza-dibenzo[b,h]fluoren-11-yl)-ethyl]-dimethylsilanyl} -methyl)-benzenesulfonamide] | 207 | 4.08 |  |  | 845 |  |  |  |
| CC[C@@]1(O)C(=O)OCc2c1cc1n(c2=O)Cc2c-1nc1ccccc1c2CC[Si](C)(C)CNC(=O)Nc1ccccc1 [Compound 41, (4S)-1-({[2-(4-ethyl-4-hydroxy-3,13-dioxo-3,4,12,13-tetrahydro-1H-2-oxa-6,12a-diaza-dibenzo[b,h]fluoren-11-yl)-ethyl]-dimethylsilanyl}-methyl)-3-phenylurea] | 23.2 | 11.2 |  |  | 259 |  |  |  |
| CCN(CC)C(=O)NC[Si](C)(C)CCc1c2c(nc3ccccc13)-c1cc3c(c(=O)n1C2)COC(=O)[C@]3(O)CC [Compound 43, (4S)-1,1-diethyl-3-({[2-(4-ethyl-4-hydroxy-3,13-dioxo-3,4,12,13-tetrahydro-1H-2-oxa-6,12a-diaza-dibenzo[b,h]fluoren-11-yl)-ethyl]-dimethylsilanyl} -methyl)-urea] | 68.9 | 4.28 |  |  | 295 |  |  |  |
| CC[C@@]1(O)C(=O)OCc2c1cc1n(c2=O)Cc2c-1nc1ccccc1c2CC[Si](C)(C)CNC(=O)N(C)C [Compound 45, (4S)-3-({[2-(4-ethyl-4-hydroxy-3, 13-dioxo-3,4, 12, 13-tetrahydro-1H-2-oxa-6,12a-diaza-dibenzo[b,h]fluoren-11-yl)-ethyl]-dimethylsilanyl}-methyl)-1,1-dimethyl-urea] |  | 4.9 | 178 | 36.1 |  |  |  |  |
| CC[C@@]1(O)C(=O)OCc2c1cc1n(c2=O)Cc2c-1nc1ccccc1c2CC[Si](C)(C)O [Compound 46, (4S)-4-Ethyl-4-hydroxy-11-[2-(hydroxydimethylsilanyl)-ethyl]-1, 12-dihydro-4H-2-oxa-6,12a-diaza-dibenzo[b,h]fluorene-3,13-dione] |  | 5.0 | 50 | 10 |  |  |  |  |
| CCC1(O)C(=O)OCc2c1cc1n(c2=O)Cc2c-1nc1ccccc1c2CC[Si](C)(C)CCC(=O)O (stereo not drawn) [Compound 47, 3-{[2-(4-Ethyl-4-hydroxy-3,13-dioxo-3 ,4, 12, 13-tetrahydro-1H-2-oxa-6, 12a-diaza-dibenzo[b,h]fluoren-11-yl)-ethyl]-dimethyl-silanyl}-propionic acid] |  | 3.1 | 629 | 200 |  |  |  |  |
| CCC1(O)C(=O)OCc2c1cc1n(c2=O)Cc2c-1nc1ccccc1c2CC[Si](C)(C)CCC(=O)N(C)C (stereo not drawn) [Compound 48, 3-{[2-(4-Ethyl-4-hydroxy-3,13-dioxo-3,4,12,13-tetrahydro-1H-2-oxa-6,12a-diaza-dibenzo[b,h]fluoren-11-yl)-ethyl]-dimethyl-silanyl}-N,N-dimethyl-propionamide] |  | 3.9 | 164 | 42.3 |  |  |  |  |
| CCC1(O)C(=O)OCc2c1cc1n(c2=O)Cc2c-1nc1ccccc1c2CC[Si](C)(C)CCC(=O)NC(CCC(=O)OCc1ccccc1)C(=O)OCc1ccccc1 (stereo not drawn) [Compound 49, 2-(3-{[2-(4-Ethyl-4-hydroxy-3, 13-dioxo-3,4, 12, 13-tetrahydro-1H-2-oxa-6,12a-diaza-dibenzo[b,h]fluoren-11-yl)-ethyl]-dimethyl-silanyl}-propionylamino)-pentanedioic acid dibenzyl ester] |  |  | > 2000 | > 2000 |  |  |  |  |
| CCC1(O)C(=O)OCc2c1cc1n(c2=O)Cc2c-1nc1ccccc1c2CC[Si](C)(C)CCC(=O)NC(CCC(=O)O)C(=O)O (stereo not drawn) [Compound 50, 2-(3-{[2-(4-Ethyl-4-hydroxy-3, 13-dioxo-3,4, 12, 13-tetrahydro-1H-2-oxa-6, 12a-diaza-dibenzo[b,h]fluoren-11-yl)-ethyl]-dimethyl-silanyl}-propionylamino)-pentanedioic add] |  | 1699.3 |  |  |  | 1700 | > 2000 |  |
| CC[C@@]1(O)C(=O)OCc2c1cc1n(c2=O)Cc2c-1nc1ccccc1c2CC[Si](C)(C)CCCOC(=O)c1ccccc1 [Compound 55, Benzoic acid 3-{[2-(4-ethyl-4-hydroxy-3,13-dioxo-3,4, 12, 13-tetrahydro-1H-2-oxa-6,12a-diaza-dibenzo[b,h]fluoren-11-yl)-ethyl]-dimethylsilanyl}-propyl ester] |  | 4.6 | 112 | 24 |  |  |  |  |
| CC[C@@]1(O)C(=O)OCc2c1cc1n(c2=O)Cc2c-1nc1ccccc1c2CC[Si](C)(C)CCCOC(=O)c1ccco1 [Compound 57, Furan-2-carboxylic acid 3-{[2-(4-ethyl-4-hydroxy-3,13-dioxo-3,4, 12, 13-tetrahydro-1H-2-oxa-6,12a-diaza-dibenzo[b,h]fluoren-11-yl)-ethyl]-dimethyl-silanyl}-propyl ester] |  | 2.4 | 29.2 | 12.3 |  |  |  |  |
| CC[C@@]1(O)C(=O)OCc2c1cc1n(c2=O)Cc2c-1nc1ccccc1c2CC[Si](C)(C)CCCOC(C)=O [Compound 60, Acetic acid 3-{[2-(4-ethyl-4-hydroxy-3,13-dioxo-3,4, 12, 13-tetrahydro-1H-2-oxa-6,12a-diaza-dibenzo[b,h]fluoren-11-yl)-ethyl]-dimethyl-silanyl}-propyl ester] |  | 3 | 32.1 | 10.6 |  |  |  |  |
| CCC1(O)C(=O)OCc2c1cc1n(c2=O)Cc2c-1nc1ccccc1c2CC[Si](C)(C)CCCOC(=O)C1CCC1 (stereo not drawn) [Compound 62, Cyclobutanecarboxylic acid 3-{[2-(4-ethyl-4-hydroxy-3, 13-dioxo-3,4, 12, 13-tetrahvdro-1H-2-oxa-6,12a-diaza-dibenzo[b,h]fluoren-11-yl)-ethyl]-dimethyl-silanyl}-propyl ester] |  | 3.77 |  |  |  | 10.4 | 39.2 |  |
| CCC1(O)C(=O)OCc2c1cc1n(c2=O)Cc2c-1nc1ccccc1c2CC[Si](C)(C)CCCOC(=O)C1=CCNO1 (stereo not drawn) [Compound 64, 2,3-Dihydro-isoxazole-5-carboxylic acid 3-{[2-(4-ethyl-4-hydroxy-3,13-dioxo-3,4,12,13-tetrahydro-1H-2-oxa-6,12a-diaza-dibenzo[b,h]fluoren-11-yl)-ethyl]-dimethyl-silanyl}-propyl ester] | 14 | 4.27 |  |  | 59.8 |  |  |  |
| CCc1c2c(nc3ccccc13)-c1cc3c(c(=O)n1C2)COC(=O)[C@]3(O)CC [SN-22] |  |  |  |  |  |  |  | 1 |
